Results reported in PMC10577695, “A Novel 7H-[1,2,4]Triazolo[3,4-b]thiadiazine-based Cystic Fibrosis Transmembrane Conductance Regulator Potentiator Directed toward Treatment of Cystic Fibrosis” (ACS Medicinal Chemistry Letters, 2023).
One block for each compound: values may come before it.

Assays:
Test in all cases: CFTR current in FRT cells expressing G551D CFTR, […] compound with VX-770
Assay type in all cases: cell-based
[1] = target: T1, cystic fibrosis transmembrane conductance regulator (CFTR) (Homo sapiens, UniProt P13569, G551D)
T1 sequence (P13569 whole entry G551D): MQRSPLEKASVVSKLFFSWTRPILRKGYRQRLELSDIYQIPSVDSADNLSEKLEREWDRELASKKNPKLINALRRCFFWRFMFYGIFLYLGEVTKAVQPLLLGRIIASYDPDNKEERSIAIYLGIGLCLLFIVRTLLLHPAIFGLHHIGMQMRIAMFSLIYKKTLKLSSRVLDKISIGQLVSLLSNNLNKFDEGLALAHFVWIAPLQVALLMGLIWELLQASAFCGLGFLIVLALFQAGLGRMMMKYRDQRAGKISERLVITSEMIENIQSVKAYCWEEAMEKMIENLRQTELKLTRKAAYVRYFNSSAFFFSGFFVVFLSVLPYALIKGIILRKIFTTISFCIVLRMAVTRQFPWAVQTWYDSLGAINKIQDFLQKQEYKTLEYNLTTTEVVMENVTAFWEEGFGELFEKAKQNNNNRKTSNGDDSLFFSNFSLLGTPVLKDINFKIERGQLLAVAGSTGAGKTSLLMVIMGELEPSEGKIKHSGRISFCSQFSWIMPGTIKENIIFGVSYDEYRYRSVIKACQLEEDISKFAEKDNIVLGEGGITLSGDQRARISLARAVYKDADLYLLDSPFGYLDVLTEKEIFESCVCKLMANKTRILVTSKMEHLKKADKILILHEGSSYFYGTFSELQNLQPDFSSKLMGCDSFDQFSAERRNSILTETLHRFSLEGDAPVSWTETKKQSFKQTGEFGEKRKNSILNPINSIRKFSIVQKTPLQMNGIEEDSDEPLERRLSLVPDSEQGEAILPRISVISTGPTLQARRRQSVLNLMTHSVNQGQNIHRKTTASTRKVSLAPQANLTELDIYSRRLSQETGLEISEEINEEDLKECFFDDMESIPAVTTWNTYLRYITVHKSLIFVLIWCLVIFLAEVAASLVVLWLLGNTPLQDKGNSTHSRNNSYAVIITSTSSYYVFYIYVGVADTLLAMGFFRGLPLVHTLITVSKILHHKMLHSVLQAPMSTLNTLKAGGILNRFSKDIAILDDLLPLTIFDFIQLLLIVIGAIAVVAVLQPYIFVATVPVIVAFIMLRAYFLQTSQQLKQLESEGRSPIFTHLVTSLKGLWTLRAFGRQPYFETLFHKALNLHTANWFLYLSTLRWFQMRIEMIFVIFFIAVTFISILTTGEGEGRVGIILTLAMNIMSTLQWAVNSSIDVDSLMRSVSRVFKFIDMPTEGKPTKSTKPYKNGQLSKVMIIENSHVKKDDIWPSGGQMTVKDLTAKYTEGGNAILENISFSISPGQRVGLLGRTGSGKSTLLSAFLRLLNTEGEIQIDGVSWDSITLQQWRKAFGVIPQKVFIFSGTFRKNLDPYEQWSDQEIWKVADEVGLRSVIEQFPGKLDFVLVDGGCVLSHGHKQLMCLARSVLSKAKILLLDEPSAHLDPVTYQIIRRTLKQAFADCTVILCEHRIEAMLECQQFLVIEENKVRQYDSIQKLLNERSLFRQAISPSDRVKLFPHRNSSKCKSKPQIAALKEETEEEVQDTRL

[2] = target: T1, cystic fibrosis transmembrane conductance regulator (CFTR); remark: listed apart in the source
[3] = target: T1, cystic fibrosis transmembrane conductance regulator (CFTR); remark: listed apart in the source

Compound: CC(C)C1=Nn2c(nnc2-c2cc(Cl)ccc2Br)SC1 [9c]
CFTR current in FRT cells expressing G551D CFTR, 10 μM compound with VX-770 [1]: 2-bromo-5-chloro series with 9c and 9d showing the highest levels of activity

% gain above VX-770 alone [2]: ~ 400 % gain above VX-770 alone
Compound: CC(C)(C)C1=Nn2c(nnc2-c2ccc(Cl)cc2Cl)SC1 [8d]

Compound: COc1ccc(Br)c(-c2nnc3n2N=C(C(C)C)CS3)c1 [10a]
% G551D CFTR stimulation compared to VX-770 alone [3]: 232 % G551D CFTR stimulation compared to VX-770 alone
